Consider one molecule from PMC8824275, “Gastrointestinal Stability and Cytotoxicity of Bacteriocins From Gram-Positive and Gram-Negative Bacteria: A Comparative in vitro Study” (Frontiers in Microbiology, 2022).

≈ marks a conversion by molar mass, not a printed value. Entries after “also recorded” stand apart in the source; their conditions may differ. Read-outs that look alike come from different tables or passages of the source.

Data set [1] relates to L. ivanovii HPB 28. It is filed as cell-based, Listeria ivanovii. The conditions noted are these: for Total activity: broth microdilution. An excerpt: Microcin J25 was produced by Escherichia coli MC4100 carrying the plasmid PTUC 202 ([Solbiati et al., 1999]). For the antibacterial activity of pure compounds and digestion mixture, Listeria ivanovii HPB28 (Canada Health Protection Branch) was used as indicator strain for nisin and pediocin PA-1, while Staphylococcus aureus ATCC 6538 (ATCC) and Salmonella enterica subsp. enterica serovar Newport ATCC 6962 (later referred to as S. Newport, ATCC) were used as indicator strains for bactofencin A (M14L, M18L) and microcin J25, respectively. L. ivanovii HPB28 and S. aureus were cultured in Tryptic Soy (Difco Laboratories, Spark, MD, United States) supplemented with 0.6% yeast extract (TSBYE), at 30 and 37°C, respectively. S. Newport was cultured at 37°C overnight in Luria-Bertani (LB) (Difco Laboratories, Spark, MD, United States). All strains were maintained at –80°C as stock cultures in their corresponding culture media supplemented with 20% glycerol, and propagated twice at 24 h intervals before use.
Quantitative determination of inhibitory activity of bacteriocins was carried out using the broth microdilution method as described by [Ben Said et al. (2020)]. Two-fold serial dilutions of bacteriocins (125 μL) were prepared in an appropriate medium in a clear 96-well flat-bottom microtiter plate. Indicator strains were diluted to 10^5 CFU/mL, from which 50 μL were added to each well. The microtiter plates were incubated for 24 h under appropriate conditions, and optical densities were recorded at 595 nm (Infinite M200, Tecan, Switzerland). Control wells contained untreated culture and appropriate medium (blanks). The number of inhibition wells was noted and inhibition activities were calculated in μg/mL.

The nature of data set [2]: In vitro simulated GI digestion (INFOGEST, static), stability by RP-HPLC and LC-MS. It is filed as in vitro ADME. The conditions noted are these: 37°C. How it is done:
In vitro simulated oral, gastric, and small intestinal digestion was adopted from standardized INFOGEST protocol ([Brodkorb et al., 2019]) in three independent replicates. The initial concentration of bacteriocins was selected in order to have sufficient quantity in the digestion mixture to conduct both activity assay by agar well diffusion and by RP-HPLC for quantification.
The entire digestion procedure was performed at 37°C.
Oral conditions: 5 mL of a 8 mg/mL bacteriocin solution (in water) were mixed with simulated salivary fluid [SSF: KCl 15.1 mM, KH2PO4 3.7 mM, NAHCO3 13.6 mM, MgCl2(H2O)6 0.15 mM, (NH4)2CO3 0.06 mM, HCl 1.1mM, CaCl2 (H2O)2 1.5 mM] in 1:1 (v/v) ratio, and the final solution was incubated for 2 min at 37°C.
Gastric conditions: The sample from the oral condition was diluted in 1:1 (v/v) ratio with simulated gastric fluid [SGF: KCl 6.9 mM, KH2PO4 0.9 mM, NAHCO3 25 mM, NaCl 47.2 mM, MgCl2(H2O)6 0.12 mM, (NH4)2CO3 0.5 mM, HCl 15.6 mM, CaCl2 (H2O)2, 0.15 mM] containing pepsin (2000 U/mL in the gastric mixture), and lipase (60 U/mL in the gastric mixture). […]
Small intestine conditions: Samples from gastric conditions were diluted in 1:1 (v/v) ratio with 20 mL of simulated intestinal fluid[SIF KCl 6.8 mM, KH2PO4 0.8 mM, NAHCO3 85 mM, NaCl 38.4 mM, MgCl2(H2O)6 0.33 Mm, HCl 8.4 mM, CaCl2 (H2O)2, 0.6 mM] containing bile salt (10 mmol/L in the final […] mixture) and pancreatin (100 U/mL in final digestion mixture) to acquire a final volume of 40 mL. […] Bacteriocins in the different samples were analyzed by analytical HPLC-UV and liquid-chromatography mass spectrometry (LC-MS/MS). […]
The digestion mixtures were analyzed by LC-MS/MS on an ultra-high-performance LC system (Ultimate 3000 RSLC, Thermo Fisher Scientific) connected to high-resolution electrospray ionization – quadrupole – time of flight (ESI-Q-TOF) mass spectrometer (Maxis II ETD, Bruker Daltonics). […] Data-dependent LC-MS/MS data were acquired in positive ion mode in the mass range m/z 250–2500, using collision induced dissociation with collision energy calculated from m/z and charge states. […]

For `C=C(NC(=O)[C@@H](NC(=O)[C@H](Cc1c[nH]cn1)NC(=O)[C@@H](NC(=O)[C@H](CO)NC(=O)[C@@H]1CS[C@@H](C)[C@H]2NC(=O)[C@H](C)NC(=O)[C@H](NC(=O)[C@H](CCCCN)NC(=O)[C@H](CCSC)NC(=O)[C@H](CC(N)=O)NC(=O)[C@@H]3CS[C@@H](C)[C@@H](NC(=O)[C@H](CCCCN)NC(=O)[C@@H]4CS[C@@H](C)[C@@H](NC(=O)[C@@H]5CSC[C@@H](NC(=O)/C(=C/C)NC(=O)[C@@H](N)[C@@H](C)CC)C(=O)N[C@@H]([C@@H](C)CC)C(=O)NC(=C)C(=O)N[C@@H](CC(C)C)C(=O)N5)C(=O)N5CCC[C@H]5C(=O)NCC(=O)N4)C(=O)NCC(=O)N[C@@H](C)C(=O)N[C@@H](CC(C)C)C(=O)N[C@@H](CCSC)C(=O)NCC(=O)N3)[C@H](C)SC[C@H](NC2=O)C(=O)N[C@@H](CC(N)=O)C(=O)N1)[C@@H](C)CC)C(C)C)C(=O)N[C@@H](CCCCN)C(=O)O` [nisin Z], the Total activity was 3.12 AU/mL in data set [1] (after gastric conditions (SGF, pepsin 2000 U/mL, lipase 60 U/mL, pH 3, 90 min, 37°C)); 3.12 AU/mL in data set [1] (after oral conditions (SSF, 2 min, 37°C)); 200 AU/mL in data set [1] (after small intestinal conditions (SIF, bile salt 10 mmol/L, pancreatin 100 U/mL, pH 7, 2 h, 37°C)); 3.12 AU/mL in data set [1] (pure compound without GI digestion, 24 h, OD 595 nm). In data set [1] (against L. ivanovii), the minimum inhibitory concentration (MIC) came to 1.65 µg/mL (≈ 0.495 µM). Besides, the “Stability in gastric conditions” value in data set [2] (SGF with pepsin 2000 U/mL and lipase 60 U/mL, pH 3, 90 min, shaking, RP-HPLC and activity, three independent replicates) is “good gastric stability”. Further, the “Stability in small intestinal conditions” value in data set [2] (SIF with bile salt 10 mmol/L and pancreatin 100 U/mL, pH 7, 2 h, RP-HPLC and activity, three independent replicates) is reported as “significantly degraded; also recorded: completely degraded”. Further, the “Stability in the GI tract (whole simulated digestion)” value in data set [2] (oral + gastric + small intestinal conditions) was “complete degradation”.
